Results on five compounds are retold here after patent US20190262330A1, “Method of Treating Hepatocellular Carcinoma Using N-(4-(6,7-dimethoxyquinolin-4-yloxy)phenyl)-N′-(4-fluorophenyl)cyclopropane-1,1-dicarboxamide, (2S)-hydroxybutanedioate” (Exelixis, Inc., priority 2017, published 2019).

Data set [1] is described as follows: Solubility in aqueous media. The class given is physicochemical.
Data set [2] deals with patients with advanced renal cell carcinoma. As to the kind of experiment: METEOR trial, safety. It is filed as in vivo, human. An excerpt: Patients on both arms who had disease progression could continue treatment at the discretion of the investigator [see Clinical Studies (14)].
In data set [3] the test system is advanced RCC after prior anti-angiogenic therapy. The data set can be described thus: METEOR trial, efficacy. The class given is in vivo, human. The text has this:
Patients were stratified by the number of prior VEGFR tyrosine kinase inhibitors (TKIs) and Memorial Sloan Kettering Cancer Center (MSKCC) Risk Group. […] The majority of the patients were male (75%), with a median age of 62 years. Sixty-nine percent (69%) received only one prior anti-angiogenic therapy. […] The main efficacy outcome measure was progression-free survival (PFS) assessed by a blinded independent radiology review committee among the first 375 subjects randomized. Other efficacy endpoints were objective response rate (ORR) and overall survival (OS) in the Intent-to-Treat (ITT) population. Tumor assessments were conducted every 8 weeks for the first 12 months, then every 12 weeks thereafter. Patients received treatment until disease progression or experiencing unacceptable toxicity. Patients on both arms who had disease progression could continue treatment at the discretion of the investigator.

Data set [4] deals with sorafenib-tolerant patients with hepatocellular carcinoma. The following applies: in vivo; cited from earlier work.
In data set [5] the test system is patients with advanced renal cell carcinoma. The data set can be described thus: CABOSUN trial, safety. It is filed as in vivo, human.
In data set [6] the test system is advanced RCC without prior therapy. As to the kind of experiment: CABOSUN trial, efficacy. The note with it: ITT. It is filed as in vivo, human. The text has this: All patients were required to have intermediate or poor risk disease as defined by the International Metastatic RCC Database Consortium (IMDC) risk group categories. Patients were stratified by IMDC risk group and presence of bone metastases (yes/no).
The major efficacy outcome measure was progression-free survival (PFS) by a retrospective blinded independent radiology review committee (BIRC).

The test system of data set [7] is patients who have not received prior systemic therapy. The note with it: in vivo; cited from earlier work.

With `COc1cc2nccc(Oc3ccc(NC(=O)C4(C(=O)Nc5ccc(F)cc5)CC4)cc3)c2cc1OC.O=C(O)C[C@H](O)C(=O)O` [Cabozantinib (S)-malate salt], the Solubility result in data set [1] is given as “practically insoluble”.
On to `CO[C@H]1C[C@@H]2CC[C@@H](C)[C@@](O)(O2)C(=O)C(=O)N2CCCC[C@H]2C(=O)O[C@H]([C@H](C)C[C@@H]2CC[C@@H](OCCO)[C@H](OC)C2)CC(=O)[C@H](C)/C=C(\C)[C@@H](O)[C@@H](OC)C(=O)[C@H](C)C[C@H](C)/C=C/C=C/C=C/1C` [Everolimus, everolimus], for which, in data set [2] (METEOR), the “Adverse reactions leading to study treatment being held” value turned out to be 59% and the “Adverse reactions leading to study treatment discontinuation” value is reported as 10%. For the same compound, in data set [2] (METEOR adverse reaction), the “Palmar-plantar erythrodysesthesia, All Grades” value is listed as 6% and the “Palmar-plantar erythrodysesthesia, Grade 3-4” value is listed as under 1%. In data set [3] (ITT), the “Confirmed ORR, partial responses only” value amounted to 3%. Moreover, the “Median PFS (95% CI)” value in data set [3] (first 375 randomized) is on record as 3.8 (3.7, 5.4) months.
Regarding `CNC(=O)c1cc(Oc2ccc(NC(=O)Nc3ccc(Cl)c(C(F)(F)F)c3)c(F)c2)ccn1` [Regorafenib], in data set [4], the “Overall survival compared with placebo” value is reported as “improved overall survival”.
Take `CCN(CC)CCNC(=O)c1c(C)[nH]c(/C=C2\C(=O)Nc3ccc(F)cc32)c1C` [Sunitinib, sunitinib]: the “Deaths within 30 days of treatment” value in data set [5] (CABOSUN) turned out to be 6 deaths. In addition, in data set [5] (human, in vivo), the “ALT increased, Grade 3-4” value stood at 0%; the “AST increased, Grade 3-4” value worked out at 3%; the “Anemia, Grade 3-4” value is 3%; the “Angiopathy, Grade 3-4” value amounted to 1%. Also, in data set [5] (human, in vivo), the “Arthralgia, Grade 3-4” value is listed as 0%; the “Back pain, Grade 3-4” value was 0%; the “Blood creatinine increased, Grade 3-4” value is reported as 3%; the “Bone pain, Grade 3-4” value was found to be 1%. Also, in data set [5] (human, in vivo), the “Confusional state, Grade 3-4” value amounted to 1%; the “Constipation, Grade 3-4” value is reported as 0%; the “Decreased appetite, Grade 3-4” value came to 1%; the “Dehydration, Grade 3-4” value is on record as 1%. Moreover, in data set [5] (human, in vivo), the “Depression, Grade 3-4” value is listed as 0%; the “Diarrhea, Grade 3-4” value turned out to be 11%; the “Dysphonia, Grade 3-4” value amounted to 0%; the “Dyspnea, Grade 3-4” value was 6%. Further, in data set [5] (human, in vivo), the “Fatigue, Grade 3-4” value was determined as 17%; the “Hyperkalemia, Grade 3-4” value is listed as 3%; the “Hypertension, Grade 3-4” value is reported as 21%; the “Hypocalcemia, Grade 3-4” value is recorded as 0%. For the same compound, in data set [5] (human, in vivo), the “Hypomagnesemia, Grade 3-4” value came out at 0%; the “Hyponatremia, Grade 3-4” value is 8%; the “Hypophosphatemia, Grade 3-4” value worked out at 7%; the “Hypotension, Grade 3-4” value amounted to 1%. In data set [5] (human, in vivo), the “Lung infection, Grade 3-4” value is given as 0%; the “Lymphocyte count decreased, Grade 3-4” value is 6%; the “Nausea, Grade 3-4” value came to 4%; the “Pain in extremity, Grade 3-4” value is given as 0%. In addition, in data set [5] (human, in vivo), the “Pain, Grade 3-4” value turned out to be 0%; the “Palmar-plantar erythrodysesthesia, Grade 3-4” value is 4%; the “Patients discontinued due to an adverse reaction” value came to 22%; the “Patients with any Grade 3-4 Adverse Reaction” value is 65%. In data set [5] (human, in vivo), the “Patients with dose held” value amounted to 71%; the “Patients with dose reduced” value was found to be 35%; the “Platelet count decreased, Grade 3-4” value came to 11%; the “Proteinuria, Grade 3-4” value was found to be 1%. Also, in data set [5] (human, in vivo), the “Renal failure acute, Grade 3-4” value is 1%; the “Skin ulcer, Grade 3-4” value was determined as 0%; the “Stomatitis, Grade 3-4” value came to 6%; the “Syncope, Grade 3-4” value is listed as 0%. For the same compound, in data set [5] (human, in vivo), the “Vomiting, Grade 3-4” value was found to be 3% and the “Weight decreased, Grade 3-4” value is 0%. For the same compound, the Overall survival events result in data set [6] is “(60) %”. Besides, in data set [6] (BIRC), the “Confirmed ORR, partial responses only” value worked out at 9%; the “Median PFS” value is given as 5.3 months; the Progression-free survival events result is given as “(63) %”.
For `CNC(=O)c1cc(Oc2ccc(NC(=O)Nc3ccc(Cl)c(C(F)(F)F)c3)cc2)ccn1` [sorafenib], in data set [7], the Objective responses entry is listed as “very few objective responses” and the Overall survival result is on record as “improves overall survival”.
